Measurements from US10696651B2, “Heterocyclic compound” (Takeda Pharmaceutical Company Limited, priority 2016, dated 2020).
Counter-ions that a name gives are not always drawn. Like-named read-outs stand apart in the source and are kept apart here.

Experiments:
[1] = target: T1, human GCN2 full-length protein (Homo sapiens, UniProt Q9P2K8); assay: GCN2 enzyme inhibition assay (LanthaScreen TR-FRET); assay type: biochemical; conditions: GCN2 enzyme inhibitory activity at compound concentration of 3 μM; for inhibition at 3 µM: read-out: inhibitory rate
T1 construct: purchased Carna Biosciences, Inc
Procedure, shortened: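 Full-length human GCN2 was preincubated with compound for 1 hr at room temperature, then reacted for 1 hr with substrate and ATP added from a 570 μM ATP / 390 nM substrate solution (stock concentrations). Phosphorylation was detected by TR-FRET with a terbium-labelled anti-eIF2alpha antibody after 1 hr, with enzyme-free wells as control.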

[2] = system: osteosarcoma cell line U-2-OS; assay: In vitro cell proliferation inhibition assay (CellTiter-Glo, low amino acid media); assay type: cell-based; conditions: McCoy's 5A low amino acid media; for inhibition at 0.1 µM: Homo sapiens, U2OS, 72 h, cell proliferation inhibitory rate; for inhibitory rate: 72 hr
Protocol: A cell suspension (40 μL) (1000 cells/well) of osteosarcoma cell line U-2-OS obtained from ATCC (American Type Culture Collection) was seeded on a 384 plate using McCoy's 5A low amino acid media (amino acid content 25%). The seeded cells were incubated (37° C., 5% CO2) overnight to 24 hr at the longest. Each example compound was dissolved (10 mM) in DMSO, delivered to wells by using TECAN HP D300 (TECAN), and the plate was incubated for 72 hr (37° C., 5% CO2). A well without addition of compound was treated similarly as a control group. Celltiter-Glo (registered trade mark) Luminescent Cell Viability Assay reagent (Promega KK) equilibrated at room temperature was added (40 μL/well) to cells in each well before compound treatment (untreated group) and 72 hours after compound treatment. After incubation for 10 min, cell proliferation inhibitory rate was measured by the amount of ATP which is a cell viability marker. Luminescence of cells showing ATP amount was measured using ARVO MX (PerkinElmer). Based on the luminescence values of the untreatment group, the control group without addition of Example compound solution, and the treatment group with addition of Example compound, the cell proliferation inhibitory rate (%) of the test compound at a compound concentration of 100 nM was calculated by the following formula and the results thereof are shown in Tables 4-1, 4-2. Inhibitory rate (%)=(1−(luminescence value of treatment group−luminescence value of untreatment group)÷(luminescence value of control group−luminescence value of untreatment group))×100

T1 sequence (Q9P2K8 whole entry): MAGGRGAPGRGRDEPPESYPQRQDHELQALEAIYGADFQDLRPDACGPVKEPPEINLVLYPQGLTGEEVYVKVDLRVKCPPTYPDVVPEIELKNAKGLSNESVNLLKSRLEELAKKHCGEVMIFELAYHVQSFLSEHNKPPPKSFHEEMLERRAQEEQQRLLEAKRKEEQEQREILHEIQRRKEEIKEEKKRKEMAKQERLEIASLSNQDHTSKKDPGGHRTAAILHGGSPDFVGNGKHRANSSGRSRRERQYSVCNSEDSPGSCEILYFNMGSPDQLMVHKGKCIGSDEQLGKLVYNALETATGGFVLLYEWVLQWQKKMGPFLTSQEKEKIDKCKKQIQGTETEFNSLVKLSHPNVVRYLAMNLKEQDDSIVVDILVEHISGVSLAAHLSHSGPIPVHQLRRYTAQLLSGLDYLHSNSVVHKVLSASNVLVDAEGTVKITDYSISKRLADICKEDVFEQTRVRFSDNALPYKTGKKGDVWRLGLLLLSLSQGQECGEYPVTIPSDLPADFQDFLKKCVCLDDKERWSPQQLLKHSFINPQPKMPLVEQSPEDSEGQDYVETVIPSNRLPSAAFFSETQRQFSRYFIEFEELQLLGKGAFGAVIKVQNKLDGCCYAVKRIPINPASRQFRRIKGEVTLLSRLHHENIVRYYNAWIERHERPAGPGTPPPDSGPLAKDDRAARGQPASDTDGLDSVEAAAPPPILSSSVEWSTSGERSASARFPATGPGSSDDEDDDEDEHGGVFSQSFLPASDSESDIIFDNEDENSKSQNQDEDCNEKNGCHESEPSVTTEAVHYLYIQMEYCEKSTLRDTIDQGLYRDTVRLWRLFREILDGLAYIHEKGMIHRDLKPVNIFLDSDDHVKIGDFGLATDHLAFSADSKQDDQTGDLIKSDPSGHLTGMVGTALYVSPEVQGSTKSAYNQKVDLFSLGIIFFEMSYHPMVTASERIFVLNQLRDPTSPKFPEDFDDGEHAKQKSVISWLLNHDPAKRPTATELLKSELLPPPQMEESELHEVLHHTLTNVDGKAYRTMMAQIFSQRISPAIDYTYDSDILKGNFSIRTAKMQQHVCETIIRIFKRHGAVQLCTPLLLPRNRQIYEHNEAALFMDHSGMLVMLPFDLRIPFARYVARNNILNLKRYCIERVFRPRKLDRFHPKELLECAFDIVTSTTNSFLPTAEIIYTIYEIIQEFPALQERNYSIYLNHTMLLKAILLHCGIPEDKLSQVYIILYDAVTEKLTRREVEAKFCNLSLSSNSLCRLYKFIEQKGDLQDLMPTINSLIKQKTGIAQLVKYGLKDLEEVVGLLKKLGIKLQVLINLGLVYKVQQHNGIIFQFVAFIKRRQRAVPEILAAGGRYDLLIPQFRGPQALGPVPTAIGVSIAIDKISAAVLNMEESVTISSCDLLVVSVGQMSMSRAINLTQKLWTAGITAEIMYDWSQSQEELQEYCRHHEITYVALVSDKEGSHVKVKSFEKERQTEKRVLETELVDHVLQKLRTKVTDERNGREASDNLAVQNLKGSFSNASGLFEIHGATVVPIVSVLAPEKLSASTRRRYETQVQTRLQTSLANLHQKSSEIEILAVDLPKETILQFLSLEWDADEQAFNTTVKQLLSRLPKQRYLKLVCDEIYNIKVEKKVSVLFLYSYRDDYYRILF

SMILES: Cc1cc(Br)cc(S(=O)(=O)Nc2ccc(F)c(C#Cc3cnc4[nH]ncc4c3)c2F)c1 [Example 18, 3-bromo-N-(2,4-difluoro-3-(1H-pyrazolo[3,4-b]pyridin-5-ylethynyl)phenyl)-5-methylbenzenesulfonamide]
- inhibition at 3 µM ([1]; Table 3-1): 100%
- inhibition at 0.1 µM ([2]; Table 4-1): 63%

SMILES: O=S(=O)(Nc1ccc(F)c(C#Cc2cnc3[nH]ncc3c2)c1F)c1cc(Cl)cc(CO)c1Cl [Example 1, 2,5-dichloro-N-(2,4-difluoro-3-(1H-pyrazolo[3,4-b]pyridin-5-ylethynyl)phenyl)-3-(hydroxymethyl)benzenesulfonamide]
- inhibition at 3 µM ([1]; Table 3-1): 100%
- inhibition at 0.1 µM ([2]; Table 4-1): 66%

SMILES: O=S(=O)(Nc1ccc(F)c(C#Cc2cnc3[nH]ncc3c2)c1F)c1cc(Cl)ccc1Cl [Example 10, 2,5-dichloro-N-(2,4-difluoro-3-(1H-pyrazolo[3,4-b]pyridin-5-ylethynyl)phenyl)benzenesulfonamide TFA Salt]
- inhibition at 3 µM ([1]; Table 3-1): 99%
- inhibitory rate ([2]; Table 4-1, TFA Salt): 63%

SMILES: C[C@H](CO)Nc1ncc(C#Cc2c(F)ccc(NS(=O)(=O)c3cc(Cl)cc(CO)c3Cl)c2F)cn1 [Example 180, 2,5-dichloro-N-(2,4-difluoro-3-((2-(((2R)-1-hydroxypropan-2-yl)amino)pyrimidin-5-yl)ethynyl)phenyl)-3-(hydroxymethyl)benzenesulfonamide]
- inhibition at 3 µM ([1]; Table 3-2): 103%
- inhibition at 0.1 µM ([2]; Table 4-2): 76%

SMILES: Nc1ncc(C#Cc2c(F)ccc(NS(=O)(=O)c3cc(Cl)ccc3Cl)c2F)cn1 [Example 17, N-(3-((2-aminopyrimidin-5-yl)ethynyl)-2,4-difluorophenyl)-2,5-dichlorobenzenesulfonamide]
- inhibition at 3 µM ([1]; Table 3-1): 99%
- inhibitory rate ([2]; Table 4-1): 73%

SMILES: Nc1ncc(C#Cc2c(F)ccc(NS(=O)(=O)c3cc(Cl)cc4ccoc34)c2F)cn1 [Example 173, N-(3-((2-aminopyrimidin-5-yl)ethynyl)-2,4-difluorophenyl)-5-chloro-1-benzofuran-7-sulfonamide]
- inhibition at 3 µM ([1]; Table 3-2): 99%
- inhibition at 0.1 µM ([2]; Table 4-2): 76%

SMILES: O=S(=O)(Nc1ccc(F)c(C#Cc2cnc(NC3COC3)nn2)c1F)c1cc(Cl)cc(CO)c1Cl [Example 179, 2,5-dichloro-N-(2,4-difluoro-3-((3-(oxetan-3-ylamino)-1,2,4-triazin-6-yl)ethynyl)phenyl)-3-(hydroxymethyl)benzenesulfonamide]
- inhibition at 3 µM ([1]; Table 3-2): 102%
- inhibition at 0.1 µM ([2]; Table 4-2): 75%

SMILES: Cc1ccc(Cl)cc1S(=O)(=O)Nc1ccc(F)c(C#Cc2cnc(N)nc2)c1F [Example 19, N-(3-((2-aminopyrimidin-5-yl)ethynyl)-2,4-difluorophenyl)-5-chloro-2-methylbenzenesulfonamide]
- inhibition at 3 µM ([1]; Table 3-1): 98%
- inhibition at 0.1 µM ([2]; Table 4-1): 87%

SMILES: O=S(=O)(Nc1ccc(F)c(C#Cc2cnc(N[C@H]3CC[C@H](O)CC3)nc2)c1F)c1cc(Cl)cc2c1OCC2O (stereo partly drawn) [Example 185, 5-chloro-N-(2,4-difluoro-3-((2-((trans-4-hydroxycyclohexyl)amino)pyrimidin-5-yl)ethynyl)phenyl)-3-hydroxy-2,3-dihydro-1-benzofuran-7-sulfonamide]
- inhibition at 3 µM ([1]; Table 3-2): 100%
- inhibition at 0.1 µM ([2]; Table 4-2): 56%

SMILES: Cc1ncc(Cl)cc1S(=O)(=O)Nc1ccc(F)c(C#Cc2cnc(Nc3cnn(C)c3)nc2)c1F [Example 163, 5-chloro-N-(2,4-difluoro-3-((2-((1-methyl-1H-pyrazol-4-yl)amino)pyrimidin-5-yl)ethynyl)phenyl)-2-methylpyridine-3-sulfonamide]
- inhibition at 3 µM ([1]; Table 3-2): 100%
- inhibition at 0.1 µM ([2]; Table 4-2): 88%

SMILES: O=S(=O)(Nc1ccc(F)c(C#Cc2cnc(N[C@H]3CC[C@H](O)CC3)nc2)c1F)c1cc(Cl)cc2c1OCC2O (stereo partly drawn) [Example 191, 5-chloro-N-(2,4-difluoro-3-((2-((trans-4-hydroxycyclohexyl)amino)pyrimidin-5-yl)ethynyl)phenyl)-3-hydroxy-2,3-dihydro-1-benzofuran-7-sulfonamide]
- inhibitory rate ([1]; Table 3-2, 3 µM): 99%
- inhibitory rate ([2]; Table 4-2): 74%

SMILES: Nc1ncc(C#Cc2c(F)ccc(NS(=O)(=O)c3cc(Cl)cnc3OC(F)F)c2F)cn1 [Example 162, N-(3-((2-aminopyrimidin-5-yl)ethynyl)-2,4-difluorophenyl)-5-chloro-2-(difluoromethoxy)pyridine-3-sulfonamide]
- inhibition at 3 µM ([1]; Table 3-2): 99%
- inhibition at 0.1 µM ([2]; Table 4-2): 35%

SMILES: COc1c(Cl)cc(Cl)cc1S(=O)(=O)Nc1ccc(F)c(C#Cc2cnc3[nH]ncc3c2)c1F [Example 33, 3,5-dichloro-N-(2,4-difluoro-3-(1H-pyrazolo[3,4-b]pyridin-5-ylethynyl)phenyl)-2-methoxybenzenesulfonamide]
- inhibition at 3 µM ([1]; Table 3-1): 98%
- inhibition at 0.1 µM ([2]; Table 4-1): 40%

SMILES: COc1c(CO)cc(Cl)cc1S(=O)(=O)Nc1ccc(F)c(C#Cc2cnc(NC3COC3)nc2)c1F [Example 140, 5-chloro-N-(2,4-difluoro-3-((2-(oxetan-3-ylamino)pyrimidin-5-yl)ethynyl)phenyl)-3-(hydroxymethyl)-2-methoxybenzenesulfonamide]
- inhibition at 3 µM ([1]; Table 3-2): 99%
- inhibition at 0.1 µM ([2]; Table 4-2): 76%

SMILES: O=S(=O)(Nc1ccc(F)c(C#Cc2cnc3[nH]ncc3c2)c1F)c1c(Cl)c(Cl)cc(Cl)c1Cl [Example 23, 2,3,5,6-tetrachloro-N-(2,4-difluoro-3-(1H-pyrazolo[3,4-b]pyridin-5-ylethynyl)phenyl)benzenesulfonamide]
- inhibition at 3 µM ([1]; Table 3-1): 100%
- inhibition at 0.1 µM ([2]; Table 4-1): 72%
